From patent publication US20110104159A1, “COMPOSITIONS AND METHODS FOR TREATING, CONTROLLING, REDUCING, AMELIORATING, OR PREVENTING ALLERGY” (priority 2006, published 2011)
Where two headings read alike, the source gives them in different places.

Key:
[1] = tested on: monkey trabecular meshwork cells; conditions: monkey trabecular meshwork cells [28]; cited from earlier work
ICAM-1 = test: IL-4 and TNF-α-induced ICAM-1 expression in HConEpiC cell lysates (Luminex); format: cell-based, human; conditions: all doses 10-1000 nM, 24 h
Method: Primary human conjunctival epithelial cells (HConEpiC) were seeded in two 24-well plates in EpiLife medium+1% Human Corneal Growth Supplement (HCGS; contains bovine pituitary extract, bovine insulin, hydrocortisone, bovine transferrin and mouse epidermal growth factor) at 2×10^4 cells/well. When the cells were confluent (4-5 days after seeding), they were incubated in EpiLife GF medium without glucocorticoids (EpiLife basic medium supplemented with 50 μg/ml bovine pituitary extract, 5 μg/ml bovine insulin and 5 ng/ml mouse epidermal growth factor) for 18 h. […] Culture medium was collected. Cytokine analysis was performed on the culture medium using 2 separate cytokine/chemokine Luminex kits (Kit 1: G-CSF, GM-CSF, IL-6, IL-8, IP-10, MCP-1, RANTES; Kit 2: eotaxin-3, CTACK). ICAM-1 expression was determined in cell lysates using a Luminex kit.
Median fluorescence intensity (MFI) was used to obtain the concentration of each cytokine and ICAM-1 in pg/ml based on the standard curve of each cytokine assayed by Luminex using the StatLIA software. ICAM-1 expression was expressed as pg/mg protein. All data were expressed as mean±SEM. Statistical analysis was performed using a two-way ANOVA-Contrast test with Factor 1 being drug and Factor 2 being dose (JMP 8 software, SAS Institute, Cary, N.C.). […] Data were analyzed either directly or after Box-Cox transformations (9, 10).

[2] = tested on: rabbit paracentesis model; test: Rabbit paracentesis model of ocular inflammation (overall conclusion); format: in vivo; conditions: 0.1%, 0.5% and 1% topical; preliminary conclusion
Source text: Inflammatory processes are multidimensional in origin, and are characterized by complex cellular and molecular events involving numerous components all of which have not been identified. Prostaglandins are among these mediators and play an important role in certain forms of ocular inflammation. Paracentesis of the anterior chamber in the rabbit eye induces inflammatory reaction due to the disruption of the blood-aqueous barrier (“BAB”), which is mediated, at least in part, by prostaglandin E2 [References 1-3 below]. Intraocular or topical administration of PGE2 disrupts the BAB. [Reference 4, below] The treatment schedule adopted in this study was similar to the clinical NSAIDs (Ocufen) treatment schedule used by surgeons for patients before cataract surgery.
Each rabbit was placed in a restraint device and tagged with the alphanumeric code. The formulations were instilled (50 μl) into the conjunctival sac of both eyes 180, 120, 90 and 30 min before the first paracentesis; then 15, 30, 90 min after the first paracentesis. To perform the first paracentesis the animals were anaesthetized by intravenous injection of 5 mg/kg Zoletil® (Virbac; 2.5 mg/kg tiletamine HCl and 2.5 mg/kg zolazepam HCl) and one drop of local anesthetic (Novesina®, Novartis) was administered to the eye. […]

[3] = tested on: ovalbumin-sensitized guinea pigs; test: Conjunctival eosinophil infiltration (histology) in OVA-challenged guinea pigs; format: in vivo, guinea pig; conditions: 0.4% eye drops; 24 h after OVA challenge; vs OVA-treated animals
Method: Male Dunkin-Hartley guinea pigs were actively immunized by i.p. injection of 200 μg OVA in 2 ml saline with 40 mg aluminum hydroxide (positive control) or saline alone (negative control), as previously reported. […] Negative controls received saline alone.
Conjunctival clinical symptoms were rated blind on both eyes using the following scale: 0, no symptoms; 1, slight conjunctival redness with or without tears; 2, mild conjunctival redness with tears and mild chemosis; 3, mild conjunctival redness with tears and moderate chemosis; 4, severe conjunctival redness with tears and partial lid eversion; 5, severe conjunctival redness with tears and lids more than half closed. The animals were euthanized 24 h after OVA challenge by i.p. injection of Tanax® (3 ml/kg; Hoechst AG, Frankfurt-am-Main, Germany) and the conjunctivas were carefully excised and each was divided into two samples for subsequent investigations. One sample was fixed in 10% buffered paraformaldehyde solution and paraffin-embedded; slides, 6 μm thick, were stained as described. The number of eosinophils in each field was counted under light microscopy (×500 magnification). In the other sample eosinophil peroxidase activity was measured.

human HMC-1 cells = test: Ionomycin-induced cytokine/chemokine release in HMC-1 cells (Luminex); format: cell-based; conditions: HMC1, 18 h after ionomycin, 95% confidence limits in brackets
Method: A human mast cell line (HMC-1), a kind gift from Prof.
After 18 h stimulation at 37° C. in a 5% CO2 atmosphere, Interleukin-8 (IL-8) was measured in supernatants obtained from […] with a commercial ELISA kit from R&D Systems. The threshold sensitivity was 5 pg/ml and the inter- and intra-assay variations were less than 5%. The supernatants obtained from HMC-1 cells were aliquoted in duplicates for interleukin-6 (IL-6), IL-8, chemokine (C-C motif) ligand 5 (CCL5)/regulated upon activation, normal T-cell expressed and secreted (RANTES) and tumor necrosis factor-α (TNF-α) analysis using a high-throughput multiplex Luminex technology (Luminex 200 System; Luminex, Austin, Tx, USA) and Beadview software version 1.0 (Upstate Cell Signaling Solutions, Temecula, Calif.). Standard curves for known concentrations of recombinant human cytokines were used to convert median fluorescence intensities to cytokine concentrations in pg/ml. Only the linear portions of the standard curves were used to quantify cytokine concentrations, and in instances where the fluorescence reading exceeded the linear range of the standard curve, an appropriate dilution was performed to ensure that the concentration was in the linear portion of the curve.
The effect of BOL-303242-X on secretion of the reported cytokines and chemokines, 18 h after ionomycin ([…]) stimulation of HMC-1 cells, was determined in comparison to dexamenthasone. Compounds (1 nM-1000 nM) were added 45 min before ionomycin. Values were calculated by analyzing at least three separated experiments where concentration-response curves were measured. ^a95% Confidence limits.

[4] = tested on: cultured human ocular cells; conditions: cultured human ocular cells [13, 29]; cited from earlier work

- IC50 (human HMC-1 cells; read-out: IC50 (nM), CCL5/RANTES release induced by ionomycin): 88.7 nM
- IC50 (human HMC-1 cells; read-out: IC50 (nM), Interleukin-6 release induced by ionomycin): 83.2 nM
- IC50 (human HMC-1 cells; read-out: IC50 (nM), Interleukin-8 release induced by ionomycin): 66.5 nM
- IC50 (human HMC-1 cells; read-out: IC50 (nM), TNF-α release induced by ionomycin): 43.8 nM
Compound: Cc1ccc2c(NC[C@](O)(CC(C)(C)c3cc(F)cc4c3OCC4)C(F)(F)F)cccc2n1 [BOL-303242-X, (R)-1,1,1-Trifluoro-4-(5-fluoro-2,3-dihydrobenzofuran-7-yl)-4-methyl-2-{[(2-methyl-5-quinolyl)amino]methyl}pentan-2-ol]
- Agonism in increasing myocilin expression [1]: partial glucocorticoid receptor agonist
- IL-4 plus TNF-α-induced ICAM-1 expression in cell lysates (ICAM-1): significantly decreased
- Activity in the rabbit paracentesis model [2]: active in this model
- Eosinophil infiltration of the conjunctiva (histology) [3]: much less marked
- Blocking inflammatory cytokine release [4]: equally potent in blocking inflammatory cytokine release
